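A five-concentration, 48-hour dose response in 96-well plates underlies each endpoint, interpolated linearly between surrounding concentrations. Here, GI50 denotes the concentration required for 50% inhibition of growth.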 Active and inactive are the calls of the source. Rule as the data show it: active = GI50 up to about 1.1 µM and inactive = higher.
How the values were obtained:
Assay in all cases: NCI tumour cell line growth inhibition, 48 h
[1] = test system: 786-0
[2] = test system: A498
[3] = test system: COLO 205
[4] = test system: EKVX
[5] = test system: HCC 2998
[6] = test system: MOLT-4
[7] = test system: NCI-H226
[8] = test system: OVCAR-3
[9] = test system: OVCAR-4
[10] = test system: OVCAR-8
[11] = test system: RPMI-8226
[12] = test system: RXF 393
[13] = test system: SF-295
[14] = test system: SK-MEL-5
[15] = test system: SNB-19
[16] = test system: TK-10
[17] = test system: UACC-62

Structure (SMILES) | GI50 [1] | GI50 [2] | GI50 [3] | GI50 [4] | GI50 [5] | GI50 [6] | GI50 [7] | GI50 [8] | GI50 [9] | GI50 [10] | GI50 [11] | GI50 [12] | GI50 [13] | GI50 [14] | GI50 [15] | GI50 [16] | GI50 [17]
CCCOc1ccc(/C=C/c2cc(OC)c(OC)c(OC)c2)cc1 | 0.481 µM (active) | 1.08 µM (active) | 0.298 µM (active) | 6.53 µM (inactive) | 3.02 µM (inactive) | 0.443 µM (active) | 0.373 µM (active) | 0.146 µM (active) | 0.971 µM (active) | 0.525 µM (active) | 0.456 µM (active) | 0.254 µM (active) | 0.185 µM (active) | 0.144 µM (active) | 0.681 µM (active) | 55.1 µM (inactive) | 0.215 µM (active)
c1ccc2c(c1)nnn2CNc1ccc(N2CCCCC2)cc1 | > 100 µM (inactive) | > 100 µM (inactive) | > 100 µM (inactive) | > 100 µM (inactive) | > 100 µM (inactive) | > 100 µM (inactive) | > 100 µM (inactive) | > 100 µM (inactive) | > 100 µM (inactive) | > 100 µM (inactive) | 68.2 µM (inactive) | > 100 µM (inactive) | > 100 µM (inactive) |  | > 100 µM (inactive) | > 100 µM (inactive) | > 100 µM (inactive)
NCCCC(N/C=C1/N=C(c2ccccc2)OC1=O)C(=O)O (stereo not drawn) | > 100 µM (inactive) | > 100 µM (inactive) | > 100 µM (inactive) | > 100 µM (inactive) | > 100 µM (inactive) | > 100 µM (inactive) | > 100 µM (inactive) | > 100 µM (inactive) | > 100 µM (inactive) | > 100 µM (inactive) | 45.5 µM (inactive) | > 100 µM (inactive) | > 100 µM (inactive) | > 100 µM (inactive) | > 100 µM (inactive) | > 100 µM (inactive) | > 100 µM (inactive)
COC(=O)C1=Cc2cc(OC)c(OC)cc2[C@H](c2ccc(OC)c(OC)c2)C1C(=O)OC (stereo partly drawn) | > 100 µM (inactive) | > 100 µM (inactive) | > 100 µM (inactive) | > 100 µM (inactive) | > 100 µM (inactive) | > 100 µM (inactive) | > 100 µM (inactive) | > 100 µM (inactive) | > 100 µM (inactive) | > 100 µM (inactive) | > 100 µM (inactive) | > 100 µM (inactive) | > 100 µM (inactive) | > 100 µM (inactive) | > 100 µM (inactive) | > 100 µM (inactive) | 98.9 µM (inactive)
CC(=O)OCC1OC(n2c(=O)[nH]c(=O)c3nn[nH]c32)C(OC(C)=O)C(OC(C)=O)C1OC(C)=O (stereo not drawn) | > 100 µM (inactive) | > 100 µM (inactive) | > 100 µM (inactive) | > 100 µM (inactive) | > 100 µM (inactive) | > 100 µM (inactive) |  |  | 66.5 µM (inactive) | > 100 µM (inactive) | > 100 µM (inactive) | > 100 µM (inactive) | > 100 µM (inactive) | > 100 µM (inactive) | > 100 µM (inactive) | > 100 µM (inactive) | > 100 µM (inactive)
O=C(O)C12C3CCC(C3)C1(C(=O)O)C1CCC2C1 (stereo not drawn) | > 100 µM (inactive) | > 100 µM (inactive) | 33 µM (inactive) | > 100 µM (inactive) | > 100 µM (inactive) | > 100 µM (inactive) | > 100 µM (inactive) | > 100 µM (inactive) |  | > 100 µM (inactive) | 23.3 µM (inactive) | 34.4 µM (inactive) | > 100 µM (inactive) | > 100 µM (inactive) | > 100 µM (inactive) | > 100 µM (inactive) | > 100 µM (inactive)

Source: ChEMBL document CHEMBL1201862, “PubChem BioAssay data set” (2004)
